For assay [1], the target named is T1, HCV NS3/4A protease complex, BMS strain (UniProt P27958, species not given/STRAIN_BMS).
T1 construct: said of H77 and J4L6S; fused on or other part: three-lysine solubilising tail at the end of NS4A (printed for the H77 and J4L6S constructs; probably the same for BMS)
Description: FRET peptide assay to monitor HCV NS3/4A proteolytic activity (BMS strain). To be noted: Table 2, NS3/4A BMS strain, activity range. It counts as biochemical, Hepatitis C virus (genotype 1a). The source says:
HCV […] protease complexes, derived from the BMS strain, H77 strain or J4L6S strain, were generated, as described below. These purified recombinant proteins were generated for use in a homogeneous assay (see below) to provide an indication of how effective compounds of the present disclosure would be in inhibiting HCV NS3 proteolytic activity.
Serum from an HCV-infected patient was obtained from Dr. T. Wright, San Francisco Hospital. An engineered full-length cDNA (compliment deoxyribonucleic acid) template of the HCV genome (BMS strain) was constructed from DNA fragments obtained by reverse transcription-PCR (RT-PCR) of serum RNA (ribonucleic acid) and using primers selected on the basis of homology between other genotype 1a strains. From the determination of the entire genome sequence, a genotype 1a was assigned to the HCV isolate according to the classification of Simmonds et al. (See Simmonds, P. et al., J. Clin. Microbiol., 31(6), 1493-1503 (1993)). […] The infectious clones, H77 (1a genotype) and J4L6S (1b genotype) were obtained from R. Purcell (NIH) and the sequences are published in GENBANK® (AAB67036, see Yanagi, M. et al., Proc. Natl. Acad. Sci. U.S.A., 94(16):8738-8743 (1997); AF054247, see Yanagi, M. et al., Virology, 244(1):161-172 (1998)).
The H77 and J4L6S strains were used for production of recombinant NS3/4A protease complexes. DNA encoding the recombinant HCV NS3/4A protease complex (amino acids 1027 to 1711) for these strains were manipulated as described by P. Gallinari et al. (see Gallinari, P. et al, Biochemistry, 38(17):5620-5632 (1999)). Briefly, a three-lysine solubilizing tail was added at the 3′-end of the NS4A coding region. The cysteine in the P1 position of the NS4A-NS4B cleavage site (amino acid 1711) was changed to a glycine to avoid the proteolytic cleavage of the lysine tag. Furthermore, a cysteine to serine mutation was introduced by PCR at amino acid position 1454 to prevent the autolytic cleavage in the NS3 helicase domain. The variant DNA fragment was cloned in the pET21b bacterial expression vector (Novagen) and the NS3/4A complex was expressed in Escherichia. coli strain BL21 (DE3) (Invitrogen) following the protocol described by P. Gallinari et al. (see Gallinari, P. et al., J. Virol., 72(8):6758-6769 (1998)) with modifications. Briefly, the NS3/4A protease complex expression was induced with 0.5 millimolar (mM) Isopropyl β-D-1-thiogalactopyranoside (IPTG) for 22 hours (h) at 20° C. A typical fermentation (1 Liter (L)) yielded approximately 10 grams (g) of wet cell paste. The cells were resuspended in lysis buffer (10 mL/g) consisting of 25 mM N-(2-hydroxyethyl)piperazine-N′-(2-ethane sulfonic acid) (HEPES), pH 7.5, 20% glycerol, 500 mM sodium chloride (NaCl), 0.5% Triton X-100, 1 microgram/milliliter (“μg/mL”) lysozyme, 5 mM magnesium chloride (MgCl2), 1 μg/ml DnaseI, 5 mM β-mercaptoethanol (βME), protease inhibitor-ethylenediamine tetraacetic acid (EDTA) free (Roche), homogenized and incubated for 20 minutes (min) at 4° C. The homogenate was sonicated and clarified by ultra-centrifugation at 235000 g for 1 hour (h) at 4° C. Imidazole was added to the supernatant to a final concentration of 15 mM and the pH adjusted to 8.0. The crude protein extract was loaded on a Nickel-Nitrilotriacetic acid (Ni-NTA) column pre-equilibrated with buffer B (25 mM HEPES, pH 8.0, 20% glycerol, 500 mM NaCl, 0.5% Triton X-100, 15 mM imidazole, 5 mM βME). The sample was loaded at a flow rate of 1 mL/min. The column was washed with 15 column volumes of buffer C (same as buffer B except with 0.2% Triton X-100). The protein was eluted with 5 column volumes of buffer D (same as buffer C except with 200 mM Imidazole).
NS3/4A protease complex-containing fractions were pooled and loaded on a desalting column Superdex-S200 pre-equilibrated with buffer D (25 mM HEPES, pH 7.5, 20% glycerol, 300 mM NaCl, 0.2% Triton X-100, 10 mM βME). Sample was loaded at a flow rate of 1 mL/min. […]

Assay [2] relates to HCV replicon in HUH-7 cells. Description: HCV replicon FRET assay. To be noted: Hepatitis C virus, Huh-7; Table 2, HCV replicon, activity range; replicon assay format not stated; read-out: EC50. It counts as cell-based, Hepatitis C virus (strain 1b). The source says: An HCV replicon whole cell system was established as described by Lohmann, V. et al., Science, 285(5424):110-113 (1999). This system enabled us to evaluate the effects of our HCV Protease compounds on HCV RNA replication. Briefly, using the HCV strain 1b sequence described in the Lohmann paper (Accession number: AJ238799), an HCV cDNA was synthesized by Operon Technologies, Inc. (Alameda, Calif.), and the full-length replicon was then assembled in plasmid pGem9zf(+) (Promega, Madison, Wis.) using standard molecular biology techniques. The replicon consists of (i) the HCV 5′ UTR fused to the first 12 amino acids of the capsid protein, (ii) the neomycin phosphotransferase gene (neo), (iii) the IRES from encephalomyocarditis virus (EMCV), and (iv) HCV NS3 to NS5B genes and the HCV 3′ UTR. Plasmid DNAs were linearized with ScaI and RNA transcripts were synthesized in vitro using the T7 MegaScript transcription kit (Ambion, Austin, Tex.) according to manufacturer's directions. In vitro transcripts of the cDNA were transfected into the human hepatoma cell line, HUH-7. […] Resulting cell lines were characterized for positive and negative strand RNA production and protein production over time.
The HCV replicon FRET assay was developed to monitor the inhibitory effects of compounds described in the disclosure on HCV viral replication. HUH-7 cells, constitutively expressing the HCV replicon, were grown in Dulbecco's Modified Eagle Media (DMEM) (Gibco-BRL) containing 10% Fetal calf serum (FCS) (Sigma) and 1 mg/ml G418 (Gibco-BRL). Cells were seeded the night before (1.5×10^4 cells/well) in 96-well tissue-culture sterile plates. Compound and no compound controls were prepared in DMEM containing 4% FCS, 1:100 Penicillin/Streptomysin (Gibco-BRL), 1:100 L-glutamine and 5% DMSO in the dilution plate (0.5% DMSO final concentration in the assay). Compound/DMSO mixes were added to the cells and incubated for 4 days at 37° C. After 4 days, cells were first assessed for cytotoxicity using alamar Blue (Trek Diagnostic Systems) for a CC50 reading. The toxicity of compound (CC50) was determined by adding 1/10th volume of alamar Blue to the media incubating the cells. After 4 h, the fluorescence signal from each well was read, with an excitation wavelength at 530 nm and an emission wavelength of 580 nm, using the CYTOFLUOR® Series 4000 (Perspective Biosystems). Plates were then rinsed thoroughly with Phosphate-Buffered Saline (PBS) (3 times 150 μl). The cells were lysed with 25 μl of a lysis assay reagent containing an HCV protease substrate (5× cell Luciferase cell culture lysis reagent (PROMEGA® #E153A) diluted to 1× with distilled water, NaCl added to 150 mM final, the FRET peptide substrate (as described for the enzyme assay above) diluted to 10 μM final from a 2 mM stock in 100% DMSO. The plate was then placed into the CYTOFLUOR® 4000 instrument which had been set to 340 nm excitation/490 nm emission, automatic mode for 21 cycles and the plate read in a kinetic mode. EC50 determinations were carried out as described for the IC50 determinations.
(Replicon systems follow genome replication, usually without infectious particles.)

SMILES strings stand for the structures. pEC50, pIC50: −log10 of the molar value.

2 compounds from US7964560B2, “Hepatitis C virus inhibitors” (Bristol-Myers Squibb Company, priority 2008, dated 2011) can be followed below.

T1 sequence (P27958 1027-1657, change not shown, one chain of several): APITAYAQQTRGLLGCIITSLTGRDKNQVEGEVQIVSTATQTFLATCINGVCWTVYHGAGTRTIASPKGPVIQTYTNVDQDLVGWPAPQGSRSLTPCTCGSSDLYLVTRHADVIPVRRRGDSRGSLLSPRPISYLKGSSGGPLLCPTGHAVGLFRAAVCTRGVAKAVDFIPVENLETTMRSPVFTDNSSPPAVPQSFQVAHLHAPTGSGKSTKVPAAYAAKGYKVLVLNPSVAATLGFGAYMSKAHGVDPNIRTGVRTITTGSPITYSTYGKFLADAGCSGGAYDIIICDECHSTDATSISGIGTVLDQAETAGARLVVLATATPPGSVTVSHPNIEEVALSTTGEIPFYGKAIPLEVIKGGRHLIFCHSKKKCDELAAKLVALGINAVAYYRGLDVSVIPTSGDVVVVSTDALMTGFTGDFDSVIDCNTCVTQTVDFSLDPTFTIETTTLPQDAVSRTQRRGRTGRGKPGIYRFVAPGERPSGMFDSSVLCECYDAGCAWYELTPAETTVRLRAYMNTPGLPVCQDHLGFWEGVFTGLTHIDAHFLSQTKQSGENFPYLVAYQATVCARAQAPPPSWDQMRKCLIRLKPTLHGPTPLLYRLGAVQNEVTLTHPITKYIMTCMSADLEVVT

What is called pIC50 is the IC50 on a negative log10 scale, so that one unit is a factor of ten. A lower pIC50 goes with a high IC50. The term pEC50 denotes the negative decadic logarithm of the EC50, by convention in mol/L. With `CCCCS[C@@]1(c2ccc(-c3ccccc3)cc2)C[C@@H](C(=O)N[C@]2(C(=O)NS(=O)(=O)C3CC3)C[C@H]2C=C(F)F)N(C(=O)[C@@H](NC(=O)OC(C)(C)C)C(C)(C)C)C1` [Example 7, tert-butyl (S)-1-((2S,4R)-4-(biphenyl-4-yl)-4-(butylthio)-2-((1R,2S)-1-(cyclopropylsulfonylcarbamoyl)-2-(2,2-difluorovinyl)cyclopropylcarbamoyl)pyrrolidin-1-yl)-3,3-dimethyl-1-oxobutan-2-ylcarbamate], the pIC50 in assay [1] was 7.70 to 9.00. The pEC50 in assay [2] is 7.00 to 8.22.
In the same order, the values of `CCCCS[C@@]1(c2ccc(-c3ccccc3)cc2)C[C@@H](C(=O)N[C@]2(C(=O)NS(=O)(=O)C3CC3)C[C@H]2CC(F)F)N(C(=O)[C@@H](NC(=O)OC(C)(C)C)C(C)(C)C)C1` [Example 4, tert-butyl (S)-1-((2S,4R)-4-(biphenyl-4-yl)-4-(butylthio)-2-((1R,2S)-1-(cyclopropylsulfonylcarbamoyl)-2-(2,2-difluoroethyl)cyclopropylcarbamoyl)pyrrolidin-1-yl)-3,3-dimethyl-1-oxobutan-2-ylcarbamate] are 7.70 to 9.00 and 7.00 to 8.22.
